The values below come from PMC6691788, “Design and synthesis of phthalazine-based compounds as potent anticancer agents with potential antiangiogenic activity via VEGFR-2 inhibition” (Journal of Enzyme Inhibition and Medicinal Chemistry, 2019).

The test system of one series is VEGFR-2. Particulars: cited from earlier work.
A further series addresses T1, VEGFR-2 tyrosine kinase (Homo sapiens, UniProt P35968).
T1 construct: purchased BPS Bioscience 40301
The experiment in a line: In vitro VEGFR-2 tyrosine kinase assay (BPS Bioscience). The format is biochemical. The settings on record: for IC50: 10 μM ATP/0.2 mg/ml poly-Glu-Tyr; for inhibition at 10 µM: read-out: VEGFR-2 % inhibition, 10 μM concentration. How it is done: The VEGFR tyrosine kinase assays were performed at BPS Bioscience (www.bpsbioscience.com). All the synthesised compounds representing the six series were evaluated for their ability to inhibit VEGFR-2 tyrosine kinase at single dose of 10 µM.
The VEGFR tyrosine kinase activity at single dose concentration of 10 μM was carried out by BPS Bioscience (www.bpsbioscience.com). VEGFR (BPS#40301) served as the enzyme source and Poly (Glu, Tyr) sodium salt, (4:1, Glu:Tyr) (Sigma#P7244) served as the standardized substrate & Kinase-Glo Plus Luminescence kinase assay kit (Promega#V3772). The IC50 determination was carried out where quality control testing is routinely performed on each of the targets to insure compliance to acceptable standards. ^33P-ATP was purchased from Perkin Elmer and ADP-Glo^TM was purchased from Promega. All other materials were of standard laboratory grade.
The VEGFR tyrosine kinase activity was performed using Kinase-Glo Plus luminescence kinase assay kit (Promega). It measures kinase activity by quantitating the amount of ATP remaining in solution following a kinase reaction. The luminescent signal from the assay is correlated with the amount of ATP present and is inversely correlated with the amount of kinase activity. The compounds were diluted to 100 μM in 10% DMSO and […] of the dilution was added to a […] reaction so that the final concentration of DMSO is 1% in all of reactions. All of the enzymatic reactions were conducted at 30 °C for 40 min. The 50 μl reaction mixture contains […], pH 7.4, […], 0.1 mg/ml BSA, 0.2 mg/ml Poly (Glu, Tyr) substrate, 10 μM ATP and VEGFR. After the enzymatic reaction, […] of Kinase-GloPlus Luminescence kinase assay solution (Promega) was added to each reaction and incubate the plate for 5 min at room temperature. Luminescence signal was measured using a BioTek Synergy 2 microplate reader. The protein kinase assays used to determine IC50 value were performed using ADP-GloTM assay kit from Promega which measures the generation of ADP by the protein kinase. Generation of ADP by the protein kinase reaction leads to an increase in luminescence signal in the presence of ADP-GloTM assay kit. The assay was started by incubating the reaction mixture in a 96-well plate at 30 °C for 30 min. After the 30 min incubation period, the assay was terminated by the addition of […] of ADP-GloTM Reagent (Promega). The 96 well plate was shaken and then incubated for 40 min at ambient temperature. […] of Kinase detection reagent was added, the 96-well reaction plate was then read using the ADP-Glo Luminescences Protocol on a GloMax plate reader (Promega: Catalog #E7031). Blank control was set up that included all the assay components except the addition of appropriate substrate (replace with equal volume of kinase assay buffer). The corrected activity for each protein kinase target was determined by removing the blank control value.
VEGFR activity assays were performed in duplicate at each concentration. The luminescence data were analyzed using the computer software, Graphpad Prism. The difference between luminescence intensities in the absence of VEGFR (Lut) and in the presence of VEGFR (Luc) was defined as 100% activity (Lut - Luc). […] IC50 determination for inhibitor against VEGFR was estimated by generating a graph of log inhibitor vs normalized response with variable using the Prism software.

A further series concerns HUVEC. The series can be described thus: In vitro HUVEC anti-proliferative assay (alamarBlue). The format is cell-based, human. Particulars: HUVEC proliferation, single dose 10 µM, 72 hours; for inhibition at 10 µM: Homo sapiens, read-out: % Cell inhibition. How it is done: The assay was performed at single dose concentration of 10 µM, where HUVEC umbilical vein endothelial cells, human (Life Technologies # C-003-5C) served as the cells’ source, in Medium 200 (Life Technologies # M-200-500), with large vessel endothelial supplement (LVES) (Life Technologies # A14608-01) and Pen-step (Hyclone # SV30010). AlamarBlue (Life Technologies # DAL1025) was used as the fluorescent reagent.
HUVEC cells were cultured in Medium 200 with 2% LVES and 1% Pen-strep. To perform the proliferation assay, HUVEC cells were seeded at 5000 cells/ 50µl /well in a 96-well black clear-bottom tissue culture plate. Cells were incubated at 37°C and 5% CO2 overnight to allow them to recover and reattach.
Next day cells were treated with test compounds for 72 hours. After treatment, cell proliferation was measured by Fluorescent quantitation of alamarBlue reagent. The alamarBlue assay incorporates a fluorometric/colorimetric growth indicator based on detection of metabolic activity. Specifically, resazurin, the active ingredient in the alamarBlue reagent, is blue in color and virtually non-fluorescent. Upon entering cells, resazurin is reduced to resorufin, a compound that is red in color and highly fluorescent. Continued cell growth maintains a reduced environment, therefore increasing the overall fluorescence and color of the media surrounding cells. […] To perform the alamarBlue assay, 10 µl of alamarBlue reagent was added to each well and the plate was incubated at 37°C for an additional 2 hours. Fluorescence intensity was measured at an excitation of 530 nm and an emission of 590 nm using a BioTek Synergy^TM 2 microplate reader.
Cell proliferation assays were performed in triplicate at each concentration. The fluorescent intensity data were analyzed using the computer software, Graphpad Prism. In the absence of the compound, the fluorescent intensity (Ft) in each data set was defined as 100%. In the absence of cells, the fluorescent intensity (Fb) in each data set was defined as 0%. The percent cell in the presence of each compound was calculated according to the following equation: %cell = (F-Fb)/(Ft-Fb), where F= the fluorescent intensity in the presence of the compound, Fb= the fluorescent intensity in the absence of cells, and Ft = the fluorescent intensity in the absence of the compound.

The subject of another series is HCT-116. The experiment in a line: In vitro cytotoxic activity, SRB assay. The format is cell-based. The settings on record: Homo sapiens; HCT-116, 48h. How it is done:
(§1) In addition, compounds (12a, 12b, 12c, 16b, 16c and 17b) were evaluated against a third cell line (HepG-2) These first two cell lines were selected based on the sensitivity of the previously NCI-tested derivatives towards them amongst the 60 NCI panel. The growth inhibition is expressed as the median growth inhibitory concentration (IC50) which corresponds to the concentration required for 50% inhibition of cell viability and are provided in (Table S6 in supplementary material).
(§2) 5,000 cells in fresh medium were seeded in 96-well microlitre plates and left to attach for 24h. Cells were incubated with the tested compounds at concentration range from 0,1,2.5,5,10 µg/ml and incubation was continued for48h. After 48h treatment,the cells were fixed with 50µl cold 50% trichloroacetic acid (TCA )for 1h at 4 °C. Wells were then washed 5 times with water and stained for 30 min at room temperature with 50µl of 0.4%SRB dissolved in 1% acetic acid. The wells were then washed 4 times with 1% acetic acid. The plates were air dried and the dye was solubilized with 100µl/well of 10mM tris base (pH 10.5) for 5min on a shaker (Orbital Shaker OS 20,Boeco,Germany) at 1600 rpm. The optical density (O.D.)of each well was measured spectrophotometrically at 564 nm with an enzyme linked immunosorbent assay( ELIZA) micraplate reader (Tecan Sunrise,Austria).The mean back ground absorbance was subtracted automatically and mean values for each drug concentration was calculated.
(§3) The percentage of cell survival was calculated as follows:
(§4) Survival fraction =O.D.(treated cells)/O.D.(control cells)
(§5) The IC50 value (the concentration required to produce 50% inhibition of cell growth) was calculated using sigmodial dose response curve-fitting models (GraphPad,Prizm software incorporated). Each concentration was repeated 3 times.

Another series has as its system HepG-2. The experiment in a line: In vitro cytotoxic activity, SRB assay. The format is cell-based. Particulars: Homo sapiens, HepG2; HepG-2, 48h. How it is done: as §1, §2, §3, §4, §5
The test system of another series is MCF-7. The series can be described thus: In vitro cytotoxic activity, SRB assay. The format is cell-based. Particulars: Homo sapiens, MCF7; MCF-7, 48h. How it is done:
as §1, §2, §3, §4, §5

In another series the test system is VEGFR-3. Also on record: method as in PMID 24565910. The settings on record: cited from earlier work.

Each structure is given as a SMILES string. Read-outs that look alike come from different tables or passages of the source. Some results are limits rather than exact numbers.

T1 sequence (P35968 20-1356): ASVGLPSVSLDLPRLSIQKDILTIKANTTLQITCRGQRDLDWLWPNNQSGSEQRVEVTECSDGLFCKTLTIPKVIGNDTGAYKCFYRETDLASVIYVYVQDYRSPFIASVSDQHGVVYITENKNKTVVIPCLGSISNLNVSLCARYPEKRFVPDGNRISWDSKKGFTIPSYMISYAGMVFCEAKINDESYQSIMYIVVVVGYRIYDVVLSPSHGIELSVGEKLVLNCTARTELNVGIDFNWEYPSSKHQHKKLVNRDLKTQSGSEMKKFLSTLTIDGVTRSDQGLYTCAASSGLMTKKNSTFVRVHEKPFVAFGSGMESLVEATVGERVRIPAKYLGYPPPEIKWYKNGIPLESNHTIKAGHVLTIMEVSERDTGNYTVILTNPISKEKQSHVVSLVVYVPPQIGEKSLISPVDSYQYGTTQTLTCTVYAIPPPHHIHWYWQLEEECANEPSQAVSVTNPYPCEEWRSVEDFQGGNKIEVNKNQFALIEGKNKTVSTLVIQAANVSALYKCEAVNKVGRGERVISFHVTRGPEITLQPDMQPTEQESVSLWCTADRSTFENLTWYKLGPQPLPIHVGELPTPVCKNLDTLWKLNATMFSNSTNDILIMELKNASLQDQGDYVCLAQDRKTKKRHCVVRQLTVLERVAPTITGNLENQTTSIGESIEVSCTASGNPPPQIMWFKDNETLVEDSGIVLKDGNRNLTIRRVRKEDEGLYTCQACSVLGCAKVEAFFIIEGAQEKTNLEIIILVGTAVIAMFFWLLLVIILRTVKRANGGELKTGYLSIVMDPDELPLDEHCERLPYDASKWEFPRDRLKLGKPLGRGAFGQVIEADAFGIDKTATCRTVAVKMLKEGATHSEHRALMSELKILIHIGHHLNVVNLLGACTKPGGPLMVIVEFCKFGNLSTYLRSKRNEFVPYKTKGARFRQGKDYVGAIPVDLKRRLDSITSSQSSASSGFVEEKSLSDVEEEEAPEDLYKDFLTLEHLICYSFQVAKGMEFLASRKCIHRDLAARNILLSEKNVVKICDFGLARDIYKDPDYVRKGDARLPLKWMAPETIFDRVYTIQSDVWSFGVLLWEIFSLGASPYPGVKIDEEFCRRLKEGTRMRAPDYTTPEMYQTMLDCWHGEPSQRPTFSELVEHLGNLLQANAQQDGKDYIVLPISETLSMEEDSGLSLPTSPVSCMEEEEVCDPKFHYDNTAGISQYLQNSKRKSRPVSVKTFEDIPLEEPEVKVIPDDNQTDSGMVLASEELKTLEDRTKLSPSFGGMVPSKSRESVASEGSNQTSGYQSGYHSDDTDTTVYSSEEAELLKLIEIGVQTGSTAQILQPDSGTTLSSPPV

Turning to `c1ccc(Cc2cnc(N3CCN(c4ncnc5ccccc45)CC3)nc2)cc1` [(VI)], in the series with VEGFR-2 (Figure 1, known VEGFR-2 kinase inhibitors, read-out: IC50), the IC50 is 3.4 nM.
`O=C(Nc1ccc(Cl)cc1)Nc1ccc(Nc2nnc(Cl)c3ccccc23)cc1` [Compound 12b, 1–(4-Chlorophenyl)-3–(4-(4-chlorophthalazin-1-ylamino)phenyl)urea] registered a melting point of 236 to 238 °C. Further, at VEGFR-2 tyrosine kinase, the IC50 stood at 4.4 µM and the inhibition at 10 µM is 70%. In addition, in the series with HUVEC, the “% Cell growth” value stood at 20.17% and the inhibition at 10 µM worked out at 79.8%. In the series on HCT-116, this molecule came in with an IC50 of 174 µM. For the same molecule, the IC50 in the series on HepG-2 worked out at 174 µM. The IC50 in the series on MCF-7 was 155 µM.
The molecule `O=C(Nc1ccc(Nc2nnc(Cl)c3ccccc23)cc1)Nc1ccc(Cl)c(C(F)(F)F)c1` [Compound 12c, 1–(4-Chloro-3-(trifluoromethyl)phenyl)-3–(4-(4-chlorophthalazin-1-ylamino)phenyl)-urea] gave a melting point of 187 to 189 °C. Besides, at VEGFR-2 tyrosine kinase, the half-maximal inhibitory concentration (IC50) is 2.7 µM and the inhibition at 10 µM amounted to 78%. In addition, in the series on HUVEC, the “% Cell growth” value amounted to 27.42% and the inhibition at 10 µM was determined as 72.6%. Also, the IC50 in the series on HCT-116 was 724 µM. This molecule came in with a half-maximal inhibitory concentration (IC50) in the series on HepG-2 of over 1000 µM. Moreover, in the series with MCF-7, the half-maximal inhibitory concentration (IC50) was over 1000 µM.
In the case of `Cc1cccc(OCc2nnc(Nc3ccc(Cl)cc3)c3ccccc23)c1` [Compound 17b, N-(4-Chlorophenyl)-4-(m-tolyloxymethyl)phthalazin-1-amine], the melting point fell in the range of 193 to 195 °C. On VEGFR-2 tyrosine kinase, the inhibition at 10 µM came to 15%. The molecule also yielded an IC50 with HCT-116 of 38 µM. Half-maximal inhibition with HepG-2 (IC50) was put at 39 µM. In the series with MCF-7, this molecule yielded an IC50 of 13.5 µM.
For the molecule `CNC(=O)c1cc(COc2nnc(Nc3ccc(Cl)cc3)c3ccoc23)ccn1` [Telatinib (V), telatinib], the results for the half-inhibitory concentration (IC50) in the series on VEGFR-2 (read-out: IC50 VEGFR-2) and in the series on VEGFR-3 were 6 nM and 4 nM, respectively.
With `Clc1ccc(Nc2nnc(Cc3ccncc3)c3ccccc23)cc1` [Vatalanib (PTK-787) (I), vatalanib], the concentration for half-maximal inhibition (IC50) in the series on VEGFR-2 (read-out: IC50 VEGFR-2) was […].
